pIC50: −log10 of the molar value.

Assay [1] deals with T1, USP28 (Homo sapiens, UniProt Q96RU2).
T1 sequence (Q96RU2 1-1077): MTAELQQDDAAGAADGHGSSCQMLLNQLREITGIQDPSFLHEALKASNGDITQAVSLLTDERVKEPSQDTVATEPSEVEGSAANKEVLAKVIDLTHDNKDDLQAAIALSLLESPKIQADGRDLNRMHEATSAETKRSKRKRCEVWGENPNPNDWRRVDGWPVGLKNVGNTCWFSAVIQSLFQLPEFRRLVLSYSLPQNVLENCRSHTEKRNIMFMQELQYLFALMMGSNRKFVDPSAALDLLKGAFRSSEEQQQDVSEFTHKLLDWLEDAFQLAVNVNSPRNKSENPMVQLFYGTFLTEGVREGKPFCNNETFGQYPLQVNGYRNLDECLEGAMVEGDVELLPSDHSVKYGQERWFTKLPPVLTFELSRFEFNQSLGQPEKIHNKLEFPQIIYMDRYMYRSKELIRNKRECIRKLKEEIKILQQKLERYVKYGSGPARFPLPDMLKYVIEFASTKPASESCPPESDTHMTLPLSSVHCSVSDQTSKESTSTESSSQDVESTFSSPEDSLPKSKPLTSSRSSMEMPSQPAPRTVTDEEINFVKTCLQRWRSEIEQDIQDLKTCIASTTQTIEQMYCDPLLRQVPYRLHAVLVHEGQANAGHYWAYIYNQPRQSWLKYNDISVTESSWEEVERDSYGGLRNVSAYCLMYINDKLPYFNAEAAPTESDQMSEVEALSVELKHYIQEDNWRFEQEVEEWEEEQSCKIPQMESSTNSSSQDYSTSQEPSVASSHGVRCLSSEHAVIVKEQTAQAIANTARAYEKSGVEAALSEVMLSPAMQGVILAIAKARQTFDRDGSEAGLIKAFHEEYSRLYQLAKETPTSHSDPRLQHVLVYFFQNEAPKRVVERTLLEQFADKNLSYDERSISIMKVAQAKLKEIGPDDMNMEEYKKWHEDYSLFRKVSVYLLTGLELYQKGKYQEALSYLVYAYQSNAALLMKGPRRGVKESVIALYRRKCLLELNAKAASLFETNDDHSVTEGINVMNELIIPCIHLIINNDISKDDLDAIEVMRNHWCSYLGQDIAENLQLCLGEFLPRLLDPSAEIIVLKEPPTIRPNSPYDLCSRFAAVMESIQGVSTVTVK
Kind of assay: Ubiquitin-Rhodamine110 assay. Type of assay: biochemical. The following applies: USP28 at 1 nM, 30 minutes pre-incubation at room temperature, Ubiquitin-Rho110 substrate 125 nM. The procedure:
USP28 (at 1 nM) was pre-incubated with different concentrations of inhibitors or DMSO as a control in 50 mM Tris pH 8, 50 mM NaCl, 0.002% Tween-20, 5 mM DTT. Compounds and protein were incubated for 30 minutes at room temperature prior to the addition of Ubiquitin-Rho110 (Boston Biochem) substrate for a final concentration of 125 nM. The initial rate of the reaction was measured by collecting fluorescence data at one-minute interval over 30-minute period using a Clariostar® fluorescence plate reader at excitation and emission wavelength of 485 nm and 535 nm, respectively. The calculated initial rate values were plotted against inhibitor concentrations to determine IC50s. All the experimental data were plotted using GraphPad Prism®.

Assay [2] concerns the target T1, USP28. Description: Competitive activity-based protein profiling (target engagement, Ub-VME probe, Western blot). Type of assay: binding. The following applies: K562 cells lysed, treated with compound for 1 h, then incubated with Ub-VME. The procedure: K562 cells were lysed and treated with indicated concentrations of compound 1 for 1 h followed by incubation with Ub-VME. Ub-VME covalently modifies USP28, resulting in higher MW band observed by Western blot.
Cells were pelleted, washed with PBS buffer, lysed on ice (20 mM Tris pH 8, 150 mM NaCl, 1% NP-40, 10% glycerol, 1 mM TCEP, phosphatase inhibitor cocktails (Sigma P5726 and Calbiochem 524624), and protease inhibitors (pepstatin, leupeptin, PMSF, and aprotinin), and clarified by centrifugation. Protein content was quantified by BCA and diluted to 2 mg/mL in lysis buffer. Compounds were added at desired concentrations and incubated at room temperature for […]. Samples were then supplemented with 2 uM […] and incubated at room temperature with shaking for 15 minutes. Reactions were quenched with 4×LDS sample buffer (Thermo Fisher B0007) supplemented with 10% BME, vortexed vigorously, and heated to 95° C. for 5 minutes. Samples were resolved by SDS-PAGE and analyzed by Western blot with the indicated antibodies.
A general note: A western blot detects proteins with antibodies after separation by electrophoresis.

On USP28 [1], `Cc1ccc(S(=O)(=O)N(C)C)cc1NC(=O)Cc1ccc(Cl)c(Cl)c1` [Compound 1] gave a pIC50 above 6.00. The “labeling of USP28 by covalent Ub-VME probe (Western blot, FIG. 2)” value at USP28 [2] was “prevents labeling of USP28 by the covalent Ub-VME probe”.
Take `Cc1ccc(S(=O)(=O)N(C)C)cc1NC(=O)Cc1ccccc1` [Compound 2]: at USP28 [1], the pIC50 is 5.00 to 6.00.
The same measure, in the same setting: as for `Cc1ccc(S(=O)(=O)N(C)C)cc1NC(=O)Cc1cccc(C(F)(F)F)c1` [Compound 3], the figure is 5.00 to 6.00.
For the molecule `Cc1ccc(S(=O)(=O)N(C)C)cc1NC(=O)Cc1ccc([N+](=O)[O-])cc1` [Compound 4], the pIC50 against USP28 [1] is 4.00 to 5.00.
`Cc1ccc(S(=O)(=O)N(C)C)cc1NC(=O)Cc1ccc(O)cc1` [Compound 5] gave a pIC50 against USP28 [1] below 4.00.
Still for that read-out and setting: the figure for `CS(=O)(=O)c1cccc(NC(=O)Cc2ccc(Cl)c(Cl)c2)c1` [Compound 6] is 4.00 to 5.00; for `Cc1ccc(S(=O)(=O)N(C)C)cc1NC(=O)CCc1ccccc1` [Compound 7] it is below 4.00.
On the same count and under the same terms, the figure for `CCN(CC)S(=O)(=O)c1cccc(NC(=O)Cc2ccc(Cl)c(Cl)c2)c1` [Compound 8] is 5.00 to 6.00; for `Cc1ccc(S(=O)(=O)N(C)C)cc1NC(=O)Cc1ccc(-c2ccccc2)cc1` [Compound 9] it is below 4.00.
The same measure, in the same setting: the figure for `Cc1ccc(S(=O)(=O)N(C)C)cc1NC(=O)CN1CCN(C)CC1` [Compound 10] is 5.00 to 6.00; for `Cc1ccc(S(=O)(=O)N2CCCCC2)cc1NC(=O)Cc1ccc(Cl)c(Cl)c1` [Compound 11] it is above 6.00.
Consider `Cc1ccc(S(=O)(=O)Nc2ccccc2)cc1NC(=O)Cc1ccc(Cl)c(Cl)c1` [Compound 12], for which the pIC50 against USP28 [1] was above 6.00.
On the same count and under the same terms, as for `CN(C)S(=O)(=O)c1cccc(NC(=O)Cc2ccc(Cl)c(Cl)c2)c1` [Compound 13], the figure is 4.00 to 5.00.
Same read-out and setting: as for `Cc1ccc(S(=O)(=O)NCc2ccccc2)cc1NC(=O)Cc1ccc(Cl)c(Cl)c1` [Compound 14], the figure is above 6.00; as for `Cc1ccc(S(=O)(=O)Nc2ccc(N3CCN(C)CC3)cc2)cc1NC(=O)Cc1ccc(Cl)c(Cl)c1` [Compound 15], above 6.00.
Still for that read-out and setting: the figure for `CN(C)S(=O)(=O)c1ccc(Cl)c(NC(=O)Cc2ccc(Cl)c(Cl)c2)c1` [Compound 16] is above 6.00; for `CCc1ccc(S(=O)(=O)N(C)C)cc1NC(=O)Cc1ccc(Cl)c(Cl)c1` [Compound 17] it is 5.00 to 6.00.
In turn, `CN(C)S(=O)(=O)c1ccc(OC(F)(F)F)c(NC(=O)Cc2ccc(Cl)c(Cl)c2)c1` [Compound 18] had a pIC50 at USP28 [1] of 4.00 to 5.00.
Still for that read-out and setting: as for `CN(C)S(=O)(=O)c1ccc(NCc2ccccc2)c(NC(=O)Cc2ccc(Cl)c(Cl)c2)c1` [Compound 19], the figure is below 4.00; as for `Cc1ccc(S(=O)(=O)N(C)C)cc1C(=O)NCc1cccc(Cl)c1` [Compound 20], above 6.00; as for `Cc1ccc(S(=O)(=O)N(C)C)cc1C(=O)NCc1ccc(Cl)c(Cl)c1` [Compound 21], above 6.00.
Molecule `Cc1ccc(C(=O)NCc2ccccc2)cc1NC(=O)Cc1ccc(Cl)c(Cl)c1` [Compound 22] had a pIC50 on USP28 [1] of 5.00 to 6.00.
The same measure, in the same setting: the figure for `Cc1ccc(S(=O)(=O)Nc2ccccc2)cc1NC(=O)Cc1ccc2ccccc2c1` [Compound 23] is above 6.00; for `Cc1ccc(S(=O)(=O)NCc2ccccc2)cc1NC(=O)c1ccc(Cl)c(Cl)c1` [Compound 24] it is above 6.00.
Same read-out and setting: as for `CN(C)S(=O)(=O)c1ccc2[nH]c(Cc3ccc(Cl)c(Cl)c3)nc2c1` [Compound 27], the figure is below 4.00.
The molecule `Cc1ccc(S(=O)(=O)Nc2ccc(-n3ccnc3)cc2)cc1NC(=O)Cc1ccc(Cl)c(Cl)c1` [Compound 29] had a pIC50 at USP28 [1] of 5.00 to 6.00.

As usually defined, the pIC50 is the negative decadic logarithm of the IC50, by convention in mol/L. High values mean a low IC50, low ones a high IC50.

The values above are taken from US12668571B2, “Substituted 3-amino-4-methylbenzenesulfonamides as small molecule inhibitors of ubiquitin-specific protease 28” (Dana-Farber Cancer Institute, Inc., priority 2020, dated 2026).
